Laboratory results published in patent US4548819A, “Derivatives of 9-(2-hydroxyethoxymethyl) guanine” (priority 1983, dated 1985).
≈ marks a conversion by molar mass, not a printed value. Counter-ions that a name gives are not always drawn.

Legend:
HSV-2 (196) = test: Antiviral activity in vitro: retardation of virus-induced cytopathogenicity in primary rabbit kidney cells, HSV-2 (196); assay type: cell-based, herpes simplex virus, Type 2; conditions: Human alphaherpesvirus 2, average of 2 or 3 determinations, read-out: Minimum Inhibitory Concentration (concentration necessary to reduce by 50% the cytopathogenicity induced by the virus)
Description: (§1) In a series of biological tests an investigation was made of the activity of the compounds of Examples 1-3 in comparison with acyclovir against various viruses in cell cultures of primary rabbit kidney cells.
(§2) The viruses used were: herpes simplex type 1 (strains KOS, Mc Intyre and F) and herpes simplex type 2 (strains Lyons, G and 196).
(§3) The origin of the six herpes simplex strains and the method for the measurement of the retardation of the cytopathogenicity induced by the virus are described by E. de Clercq et al. in J. Infect Dis., 141, 563 (1980).
(§4) The results of the tests are reproduced in the following table, where they are expressed in the minimum inhibitory concentration, that is to say the concentration (in μg/ml) which is necessary to reduce by 50% the cytopathogenicity induced by the virus in the cell culture. In all cases average values of 2 or 3 separate determinations are given.

HSV-1 (KOS) = test: Antiviral activity in vitro: retardation of virus-induced cytopathogenicity in primary rabbit kidney cells, HSV-1 (KOS); assay type: cell-based, herpes simplex virus, Type 1; conditions: Human alphaherpesvirus 1, average of 2 or 3 determinations, read-out: Minimum Inhibitory Concentration (concentration necessary to reduce by 50% the cytopathogenicity induced by the virus)
Description: as §1, §2, §3, §4

HSV-2 (G) = test: Antiviral activity in vitro: retardation of virus-induced cytopathogenicity in primary rabbit kidney cells, HSV-2 (G); assay type: cell-based, herpes simplex virus, Type 2; conditions: Human alphaherpesvirus 2, average of 2 or 3 determinations, read-out: Minimum Inhibitory Concentration (concentration necessary to reduce by 50% the cytopathogenicity induced by the virus)
Description: as §1, §2, §3, §4

HSV-1 (F) = test: Antiviral activity in vitro: retardation of virus-induced cytopathogenicity in primary rabbit kidney cells, HSV-1 (F); assay type: cell-based, herpes simplex virus, Type 1; conditions: Human alphaherpesvirus 1, average of 2 or 3 determinations, read-out: Minimum Inhibitory Concentration (concentration necessary to reduce by 50% the cytopathogenicity induced by the virus)
Description: as §1, §2, §3, §4

HSV-2 (Lyons) = test: Antiviral activity in vitro: retardation of virus-induced cytopathogenicity in primary rabbit kidney cells, HSV-2 (Lyons); assay type: cell-based, herpes simplex virus, Type 2; conditions: Human alphaherpesvirus 2, average of 2 or 3 determinations, read-out: Minimum Inhibitory Concentration (concentration necessary to reduce by 50% the cytopathogenicity induced by the virus)
Description: as §1, §2, §3, §4

HSV-1 (McIntyre) = test: Antiviral activity in vitro: retardation of virus-induced cytopathogenicity in primary rabbit kidney cells, HSV-1 (McIntyre); assay type: cell-based, herpes simplex virus, Type 1; conditions: Human alphaherpesvirus 1, average of 2 or 3 determinations, read-out: Minimum Inhibitory Concentration (concentration necessary to reduce by 50% the cytopathogenicity induced by the virus)
Description: as §1, §2, §3, §4

HSV-1 (strain McIntyre) = test: Antiviral activity in vivo: HSV-1 stromal keratitis in rabbits, eye drops
Method: The in vivo antiviral activity of the compound of Example 1 was compared with the known antiviral bromovinyldeoxyuridine.
Eye drops containing 0.5% (w/v) of bromovinyldeoxyuridine or 1% w/v of compound of Example 1 were prepared in an isotonic borate buffer containing 1.52 g boric acid, 0.008 g borax and 0.01 g benzalkoniumchloride in 100 ml distilled water. The pH of the solution was 5.7. The vehicle alone without any antiviral ingredients was used as placebo. The eye drops were coded.
A cross-breed of California albino and Dendermonde white rabbits, weighing between 1.5 and 2 kg, were used.
Thirty rabbits were used to produce stromal keratitis according to the technique of McNeill and Kaufman (Arch. Ophthalmol. 97: 727-729, 1979). Rabbits were anesthetized by a subcutaneous injection of fentanyl citrate at 1 ml/kg. A 0.2 ml virus suspension, containing 10^4.5 plaque-forming units of HSV-1 (strain McIntyre) per ml, was injected into the central corneal stroma of both eyes.
The rabbits were numbered serially and allocated at random to three groups of […] rabbits each. Treatment consisted of administration of eye drops containing the compound of Example 1, bromovinyldeoxyuridine, or placebo eye drops. Treatment was started one day after virus inoculation. One drop of the eye drop formulation was instiled into the eye at hourly intervals, nine times as day. Therapy was continued for 5 consecutive days. Both eyes of each rabbit received the same modification.
The severity of keratitis was evaluated daily by the same person using a slitlamp. White illumination was used to examine the corneal stroma and anterior chamber structures. One percent fluorescein sodium eye drops and a cobalt blue filter were employed to judge epithelial keratitis and corneal ulceration.

herpes viruses = conditions: H. J. Schaeffer et al, Nature, 272, 583-585 (1978); cited from earlier work
[1] = eye drops, Example 1 at 1% w/v or bromovinyldeoxyuridine at 0.5% w/v
[2] = iritis accompanying stromal HSV-1 keratitis, eye drops

IC50 (HSV-2 (196)) [µg/mL]	IC50 (HSV-1 (KOS)) [µg/mL]	IC50 (HSV-2 (G)) [µg/mL]	IC50 (HSV-1 (F)) [µg/mL]	IC50 (HSV-2 (Lyons)) [µg/mL]	IC50 (HSV-1 (McIntyre)) [µg/mL]	Compound	difference in keratitis score versus placebo (HSV-1 (strain McIntyre); [1])	progression or healing of stromal disease (HSV-1 (strain McIntyre); [1])	suppression of stromal keratitis (HSV-1 (strain McIntyre); eye drops, Example 1 at 1% w/v or bromovinyldeoxyuridine at 0.5% w/v, hourly nine times a day, 5 days)	difference in iritis scores versus placebo (HSV-1 (strain McIntyre); [2])	reduction in the iritis scores (HSV-1 (strain McIntyre); [2])	mean keratitis scores (HSV-1 (strain McIntyre); once treatment was initiated, 1% w/v eye drops)	antiviral activity (herpes viruses)
0.1	0.2	0.15	0.5	0.1	0.4	NCCC(=O)OCCOCn1cnc2c(=O)[nH]c(N)nc21 [Example 3, 9-(2-0-β-alanyloxyethoxymethyl)guanine hydrochloride]	–	–	–	–	–	–	–
0.1	0.4	0.2	0.4	0.07	0.4	CC(N)C(=O)OCCOCn1cnc2c(=O)[nH]c(N)nc21 (stereo not drawn) [Example 2, 9-(2-0-α-alanyloxyethoxymethyl)guanine hydrochloride]	–	–	–	–	–	–	–
0.07	0.1	0.08	0.1	0.04	0.1	Cl.NCC(=O)OCCOCn1cnc2c(=O)[nH]c(N)nc21 [Example 1, 9-(2-glycyloxyethoxymethyl)guanine hydrochloride]	statistically significant throughout the whole observation period	prevented the progression of stromal disease	effective in suppressing stromal keratitis	significant from day 2 till day 8	significant reduction in the iritis scores	remained nearly constant	–
0.06 (≈ 0.266 µM)	0.08 (≈ 0.355 µM)	0.06 (≈ 0.266 µM)	0.09 (≈ 0.4 µM)	0.04 (≈ 0.178 µM)	0.1 (≈ 0.444 µM)	Nc1nc2c(ncn2COCCO)c(=O)[nH]1 [Acyclovir, 9-(2-Hydroxyethoxymethyl)guanine, reference compound]	–	–	–	–	–	–	potential antiviral activity, particularly against herpes viruses
